Source: patent publication US20250280826A1, “PLANT GROWTH PROMOTER” (KAO CORPORATION, priority 2022, published 2025)

Type: physicochemical
Settings: in 100 μL of isobutyl alcohol
Method: The amount of BHT dissolved in 100 μL of isobutyl alcohol was changed. […] For other solvents, solubility was similarly confirmed at a ratio of BHT:solvent=1:4. […] The reagents used were those manufactured by FUJIFILM Wako Pure Chemical Corporation.

Substance: dibutylhydroxytoluene [BHT]
- amount of BHT uniformly dissolved: up to 25 mg
